According to PMC6930659, “Antiprotozoal Activity of Turkish Origanum onites Essential Oil and Its Components” (Molecules, 2019):
≈ marks a conversion by molar mass, not a printed value. Where two headings read alike, the source gives them in different places.

What was measured:
[1] = test system: T. cruzi Tulahuen strain C2C4; experiment: In vitro assay for Trypanosoma cruzi in L-6 cells (β-galactosidase/CPRG); type: cell-based; conditions: Trypanosoma cruzi, L6; Tulahuen C2C4 in L-6 cells, 96 h; highest concentration tested 90 μg/mL; means of two determinations ± deviation
Method: Rat skeletal myoblasts (L-6 cells) were seeded in 96 well microtiter plates (2000 cells/well) in 100 μL RPMI 1640 medium with 10% FBS and 2 mM L-glutamine for 24 h. After that, the medium was removed and replaced by 100 μL per well containing 5000 trypomastigote forms of T. cruzi Tulahuen strain C2C4, containing the β-galactosidase (Lac Z) gene. The medium was removed from the wells after 48 h, and replaced with 100 μL fresh medium with or without a serial drug dilution of seven 3-fold dilution steps covering a range from 90 to 0.123 μg/mL. After 96 h of incubation, the plates were inspected under an inverted microscope to assure growth of the controls and sterility, after which the substrate CPRG/Nonidet ([…]) was added to all wells. A color reaction developed within 2–6 h and could be read photometrically at 540 nm. Data were transferred into the graphic program Softmax Pro (Molecular Devices Cooperation, Sunnyvale, CA, USA) and the IC50 values were calculated from the sigmoidal dose response curves. Benznidazole was the reference drug.

[2] = In vitro assay for cytotoxicity on mammalian cells (resazurin); type: cell-based, rat
Method: (§1) Assays were performed in 96 well microtiter plates (4 × 10^4 L6 cells/well), each well containing 100 μL of RPMI 1640 medium supplemented with 1% L-glutamine (200 mM) and 10% FBS. L6 cells are a primary cell line derived from rat skeletal myoblasts. Serial drug dilutions of seven 3-fold dilution steps covering a range from 90 to 0.123 μg/mL were prepared. After 72 h of incubation, the plates were inspected under an inverted microscope to assure growth of the controls and sterile conditions. Resazurin solution (10 μL) (12.5 mg resazurin in 100 mL double-distilled water) was then added to each well and the plates incubated for another 2 h. The plates were then read with a Spectramax Gemini XS microplate fluorometer (Molecular Devices Cooperation, Sunnyvale, CA, USA) using an excitation wavelength of 536 nm and an emission wavelength of 588 nm. Data were analyzed using the microplate reader software Softmax Pro (Molecular Devices Cooperation, Sunnyvale, CA, USA). From the sigmoidal inhibition curves, the IC50 values were calculated. Podophyllotoxin was the positive control.

P. falciparum K1 strain = experiment: In vitro assay for Plasmodium falciparum ([3H]-hypoxanthine incorporation); type: cell-based
Method: Activity against the erythrocytic stages of P. falciparum was determined using an in vitro modified [^3H]-hypoxanthine incorporation assay, using the chloroquine- and pyrimethamine-resistant K1 strain [68]. Compounds were dissolved in DMSO at 10 mg/mL and further diluted in medium before added to parasite cultures incubated in RPMI 1640 medium without hypoxanthine, supplemented with HEPES (5.94 g/l), NaHCO3 (2.1 g/L), neomycin (100 U/mL), AlbumaxR (5 g/L), and washed human red cells A+ at 2.5% haematocrit (0.3% parasitaemia). Serial drug dilutions of seven 3-fold dilution steps covering a range from 90 to 0.123 μg/mL were prepared. The 96 well plates were incubated in a humidified atmosphere at 37 °C; 4% CO2, 3% O2, 93% N2. After 48 h 50 μL of ^3H-hypoxanthine (=0.5 μCi) was added to each well of the plate. The plates were incubated for a further 24 h under the same conditions. The plates were then harvested with a Betaplate™ cell harvester (Wallac, Zurich, Switzerland), and the red blood cells transferred onto a glass fiber filter then washed with distilled water. The dried filters were inserted into a plastic foil with 10 mL of scintillation fluid, and counted in a Betaplate™ liquid scintillation counter (Wallac, Zurich, Switzerland). […] IC50 values were calculated from the sigmoidal inhibition curves using Microsoft Excel. Chloroquine was used as positive control drug.

[3] = test system: L. donovani (strain MHOM/ET/67/L82) amastigotes; experiment: In vitro assay for Leishmania donovani axenic amastigotes (resazurin); type: cell-based; conditions: axenic amastigotes, 72 h, means of two determinations ± deviation, read-out: IC50 Leishmania donovani
Method: Amastigotes of L. donovani (strain MHOM/ET/67/L82) were grown in axenic culture at 37 °C in SM medium at pH 5.4 supplemented with 10% heat-inactivated FBS under an atmosphere of 5% CO2. Culture medium (100 μL) with 10^5 amastigotes from axenic culture with or without a serial drug dilution was seeded in 96 well microtiter plates. Serial drug was prepared covering a range of dilutions from 90 to 0.123 μg/mL. After 72 h of incubation, the plates were inspected under an inverted microscope to assure growth of the controls and sterile conditions. Subsequently, 10 μL resazurin solution (12.5 mg resazurin dissolved in 100 mL double-distilled water) was added to each well and the plates were incubated for another 2 h. The plates were then read with a Spectramax Gemini XS microplate fluorometer (Molecular Devices Cooperation, Sunnyvale, CA, USA) using an excitation wavelength of 536 nm and an emission wavelength of 588 nm. Data were analyzed using the software Softmax Pro (Molecular Devices Cooperation, Sunnyvale, CA, USA). A decrease of fluorescence (=inhibition) was expressed as percentage of the fluorescence of control cultures and plotted against the drug concentrations. From the sigmoidal inhibition curves, the IC50 values were calculated. Miltefosine was used as a reference drug.

[4] = test system: Trypanosoma brucei rhodesiense STIB 900; experiment: In vitro assay for Trypanosoma brucei rhodesiense (resazurin); type: cell-based
Method: Trypanosoma brucei rhodesiense STIB 900 strain, isolated in 1982 from a human patient in Tanzania and, after several mouse passages, cloned and adapted to axenic culture conditions, was used in this assay. Minimum essential medium (50 μL) supplemented with 25 mM HEPES, 1 g/L additional glucose, 1% MEM non-essential amino acids (100×), 0.2 mM 2-mercaptoethanol, 1 mM Na-pyruvate, and 15% heat inactivated horse serum was added to each well of a 96 well microtiter plate. Serial drug dilutions of seven 3-fold dilution steps covering a range from 90 to 0.123 μg/mL were prepared, and then 4 × 10^4 blood stream forms of T. b. rhodesiense STIB 900 in 50 μL were added to each well and the plate was incubated at 37 °C under a 5% CO2 atmosphere for 72 h. Resazurin solution (resazurin, 12.5 mg in 100 mL double-distilled water) (10 μL) was then added to each well and incubated for a further 2–4 h. At the end of the assay, the plates were read with a Spectramax Gemini XS microplate fluorometer (Molecular Devices Cooperation, Sunnyvale, CA, USA) using an excitation wavelength of 536 nm and an emission wavelength of 588 nm. Data were analyzed using the microplate reader software Softmax Pro (Molecular Devices Cooperation, Sunnyvale, CA, USA). Melarsoprol was used as standard drug.

T. brucei brucei STIB795 = experiment: In vivo trypanocidal activity, T. brucei brucei STIB795 mouse model; set-up: species or system Trypanosoma brucei brucei; conditions: 5.0 mg/kg × 4 days i.p., NMRI mice; for Mean Survival: untreated control 5.25 days
Method: In vivo efficacy studies in mice were conducted at the Swiss Tropical and Public Health Institute (Basel) (License number 2813) according to the rules and regulations for the protection of animal rights (“Tierschutzverordnung”) of the Swiss “Bundesamt für Veterinärwesen”. They were approved by the veterinary office of Canton Basel-Stadt, Switzerland. Groups of four female NMRI mice weighing 20 to 25 g were infected i.p. on Day 0 (d0) with 10^5 bloodstream forms of T. brucei brucei STIB 795, which is a derivative of strain 427. Compounds were formulated in 100% DMSO diluted 10-fold in distilled water. Mice were treated on four consecutive days (d3 to d6 post-infection) with the Origanum onites oil, as well as carvacrol and thymol, at 100 mg/kg by the i.p. route. One group served as untreated controls, and two other groups were treated with the standard drugs pentamidine (5 mg/kg for 4 days) and melarsoprol (2 mg/kg for 4 days), respectively. The levels of parasitemia of the mice were checked by microscopic examination of tail blood on Day 7 and thereafter twice a week until Day 30 post infection. Mice were considered cured when there was no parasitaemia relapse detected in the tail blood over the 30 day observation period. The day of relapse and surviving days were recorded.

[5] = test system: T. brucei bloodstream forms; set-up: method as in PMID 10865458; conditions: cited from earlier work
L6 cells = experiment: In vitro assay for cytotoxicity on mammalian cells (resazurin); type: cell-based, rat; conditions: rat
Method: as §1

Leishmania = test system: Leishmania; set-up: method as in PMID 15793164; conditions: oral administration in mice for 30 days; cited from earlier work
T. cruzi epimastigotes = test system: T. cruzi epimastigotes; set-up: method as in doi:10.1080/10412905.2013.820669; conditions: cited from earlier work
T. cruzi amastigotes = test system: T. cruzi amastigotes; set-up: method as in doi:10.1080/10412905.2013.820669; conditions: cited from earlier work
T. b. brucei = test system: T. b. brucei; set-up: method as in PMID 29778466; conditions: blood stream trypomastigotes cultures; AnTart 1 strain, wild type; cited from earlier work
[6] = L6 cells (rat skeletal myoblasts), rat skeletal myoblasts, 72 h, means of two determinations ± deviation, read-out: IC50 Cytotoxicity L6 cells
[7] = K1 strain (chloroquine- and pyrimethamine-resistant), erythrocytic stages, means of two determinations ± deviation, read-out: IC50 Plasmodium falciparum
[8] = Trypanosoma brucei, 72 h, STIB 900 blood stream forms, 72 h; means of two independent determinations ± deviation from the mean; read-out: IC50 Trypanosoma brucei rhodesiense
[9] = rat skeletal myoblasts, 72 h, means of two determinations ± deviation, read-out: IC50 Cytotoxicity L6 cells

| Compound | IC50 [1] [µg/mL] | IC50 at 72 h [2, 6] [µg/mL] | IC50 (P. falciparum K1 strain; [7]) [µg/mL] | IC50 [3] [µg/mL] | IC50 [4, 8] [µg/mL] | also measured |
| --- | --- | --- | --- | --- | --- | --- |
| CC1(C)C2CCC1(C)C(O)C2 (stereo not drawn) [Borneol] | > 90 | > 90 | > 20 | 52.1 ± 16.6 (≈ 338 µM) | 24.3 ± 11.8 (≈ 158 µM) |  |
| COc1cc(C(C)C)ccc1C [Carvacrol Methyl Ether] | > 90 |  | > 20 | 17.5 ± 1.7 (≈ 107 µM) | 17 ± 22 (≈ 104 µM) | IC50 at 72 h ([2]; rat): > 90 µg/mL |
| C=C[C@](C)(O)CCC=C(C)C [L-Linalool] | > 90 |  | > 20 | 86.3 ± 2.8 (≈ 559 µM) | 3.6 ± 2.5 (≈ 23.3 µM) | IC50 at 72 h ([2]; rat): > 90 µg/mL |
| C=CC(=C)CCC=C(C)C [Myrcene] | > 90 | > 90 | > 20 | 48.2 ± 12.7 (≈ 354 µM) | 22 ± 14.8 (≈ 161 µM) |  |
| N=C(N)c1ccc(OCCCCCOc2ccc(C(=N)N)cc2)cc1 [Pentamidine, reference compound] |  |  |  |  |  | Cured/Infected (T. brucei brucei STIB795): 4/4; Mean Survival (T. brucei brucei STIB795): >30 days; Mean Survival (T. brucei brucei STIB795; listed as pentamidine): over 30 days |
| CC1=CCC(O)(C(C)C)CC1 (stereo not drawn) [Terpinen-4-ol] | 46.8 ± 7.4 (≈ 303 µM) | 43.3 ± 16.5 (≈ 281 µM) | > 20 | 68.7 ± 14.2 (≈ 445 µM) | 0.66 ± 0.4 (≈ 4.28 µM) | ED50 T. brucei bloodstream forms [5]: 0.02 µg/mL (≈ 0.13 µM); selectivity to the parasite than to the human cell line [5]: 1000 fold |
| COc1cc(C)ccc1C(C)C [Thymol Methyl Ether] | > 90 |  | > 20 | 86 ± 1.9 (≈ 524 µM) | 4.1 ± 1.97 (≈ 25 µM) | IC50 at 72 h ([2]; rat): > 90 µg/mL |
| CC1=CC(=O)C(C(C)C)=CC1=O [Thymoquinone] | 18.2 ± 4.3 (≈ 111 µM) | 20.5 ± 8.1 (≈ 125 µM) | 2.6 ± 0.16 (≈ 15.8 µM) | 1.7 ± 0.16 (≈ 10.4 µM) | 0.11 ± 0.02 (≈ 0.67 µM) | fold higher cytotoxicity on L6 cells than thymol (L6 cells): 2.5 fold |
| O=C(Cn1ccnc1[N+](=O)[O-])NCc1ccccc1 [benznidazole, reference compound] | 0.44 (≈ 1.69 µM) |  |  |  |  |  |
| CCN(CC)CCCC(C)Nc1ccnc2cc(Cl)ccc12 (stereo not drawn) [chloroquine, reference compound] |  |  |  |  |  | IC50 (P. falciparum K1 strain; K1, read-out: IC50 Plasmodium falciparum): 0.056 µg/mL (≈ 0.175 µM) |
| CNC[C@H](O)[C@@H](O)[C@H](O)[C@H](O)CO.[O]=[Sb](=[O])[OH] [glucantime] |  |  |  |  |  | reduction of the parasite burden (Leishmania): 100% |
| Nc1nc(N)nc(Nc2ccc([As]3SCC(CO)S3)cc2)n1 (stereo not drawn) [melarsoprol, reference compound] |  |  |  |  |  | IC50 ([4]; Trypanosoma brucei, 72 h, read-out: IC50 Trypanosoma brucei rhodesiense): 0.003 µg/mL |
| CCCCCCCCCCCCCCCCOP(=O)([O-])OCC[N+](C)(C)C [miltefosine, reference compound] |  |  |  | 0.2 (≈ 0.491 µM) |  |  |
| Cc1ccc(C(C)C)cc1 [p-Cymene] | > 90 | > 90 | > 20 | > 90 | 45 ± 27 (≈ 335 µM) |  |
| COc1cc([C@@H]2c3cc4c(cc3[C@H](O)[C@H]3COC(=O)[C@H]23)OCO4)cc(OC)c1OC [phodophyllotoxin, reference compound] |  |  |  |  |  | IC50 at 72 h [2, 9]: 0.004 µg/mL (≈ 0.00965 µM) |
| CC1=CCC2CC1C2(C)C (stereo not drawn) [α-Pinene] | > 90 | 87.8 ± 3 (≈ 644 µM) | 10.7 ± 1.2 (≈ 78.5 µM) | 81.9 ± 9 (≈ 601 µM) | 0.42 ± 0.24 (≈ 3.08 µM) | IC50 T. cruzi epimastigotes (T. cruzi epimastigotes): 2.74 µg/mL (≈ 20.1 µM); IC50 T. cruzi amastigotes (T. cruzi amastigotes): 1.92 µg/mL (≈ 14.1 µM); IC50 T. b. brucei (T. b. brucei): 2.9 µg/mL (≈ 21.3 µM) |
| CC1=CC[C@@H](C(C)(C)O)CC1 [α-Terpineol] | 61 ± 2.1 (≈ 395 µM) |  | > 20 | 75.9 ± 4.7 (≈ 492 µM) | 0.56 ± 0.4 (≈ 3.63 µM) | IC50 [2, 9]: 32.3 ± 0.1 µg/mL (≈ 209 µM) |
| C=C1CC/C=C(\C)CC[C@@H]2[C@@H]1CC2(C)C [β-Caryophyllene] | 50.1 ± 12.5 (≈ 245 µM) | 62.2 ± 7 (≈ 304 µM) | 12.8 (≈ 62.6 µM) | 52.4 ± 17.4 (≈ 256 µM) | 28.9 ± 11.8 (≈ 141 µM) |  |
| CC1=CCC(C(C)C)=CC1 [γ-Terpinene] | > 90 |  | > 20 | > 90 |  | IC50 [2, 9]: > 90 µg/mL; IC50 ([4]; Trypanosoma brucei; STIB 900 blood stream forms, 72 h; means of two independent determinations ± deviation from the mean; read-out: IC50 Trypanosoma brucei rhodesiense): 32.9 ± 26 µg/mL (≈ 241 µM) |
